Data as given in publication PMC5540273, “Progress towards a public chemogenomic set for protein kinases and a call for contributions” (PLoS ONE, 2017).

Legend:
[1] = target: JNK1 (Homo sapiens, UniProt P45983); assay: KINOMEscan competition binding; details: read-out: %Inh JNK1
[2] = target: CAMK1D (Homo sapiens, UniProt Q8IU85); assay: KINOMEscan competition binding; details: read-out: %Inh CAMK1D
[3] = target: AAK1 (Homo sapiens, UniProt Q2M2I8); assay: KINOMEscan competition binding; details: read-out: %Inh AAK1
[4] = target: T1, MAP3K15 (Homo sapiens, UniProt Q6ZN16); assay: KINOMEscan competition binding; details: read-out: %Inh MAP3K15
T1 sequence (Q6ZN16 1-1313): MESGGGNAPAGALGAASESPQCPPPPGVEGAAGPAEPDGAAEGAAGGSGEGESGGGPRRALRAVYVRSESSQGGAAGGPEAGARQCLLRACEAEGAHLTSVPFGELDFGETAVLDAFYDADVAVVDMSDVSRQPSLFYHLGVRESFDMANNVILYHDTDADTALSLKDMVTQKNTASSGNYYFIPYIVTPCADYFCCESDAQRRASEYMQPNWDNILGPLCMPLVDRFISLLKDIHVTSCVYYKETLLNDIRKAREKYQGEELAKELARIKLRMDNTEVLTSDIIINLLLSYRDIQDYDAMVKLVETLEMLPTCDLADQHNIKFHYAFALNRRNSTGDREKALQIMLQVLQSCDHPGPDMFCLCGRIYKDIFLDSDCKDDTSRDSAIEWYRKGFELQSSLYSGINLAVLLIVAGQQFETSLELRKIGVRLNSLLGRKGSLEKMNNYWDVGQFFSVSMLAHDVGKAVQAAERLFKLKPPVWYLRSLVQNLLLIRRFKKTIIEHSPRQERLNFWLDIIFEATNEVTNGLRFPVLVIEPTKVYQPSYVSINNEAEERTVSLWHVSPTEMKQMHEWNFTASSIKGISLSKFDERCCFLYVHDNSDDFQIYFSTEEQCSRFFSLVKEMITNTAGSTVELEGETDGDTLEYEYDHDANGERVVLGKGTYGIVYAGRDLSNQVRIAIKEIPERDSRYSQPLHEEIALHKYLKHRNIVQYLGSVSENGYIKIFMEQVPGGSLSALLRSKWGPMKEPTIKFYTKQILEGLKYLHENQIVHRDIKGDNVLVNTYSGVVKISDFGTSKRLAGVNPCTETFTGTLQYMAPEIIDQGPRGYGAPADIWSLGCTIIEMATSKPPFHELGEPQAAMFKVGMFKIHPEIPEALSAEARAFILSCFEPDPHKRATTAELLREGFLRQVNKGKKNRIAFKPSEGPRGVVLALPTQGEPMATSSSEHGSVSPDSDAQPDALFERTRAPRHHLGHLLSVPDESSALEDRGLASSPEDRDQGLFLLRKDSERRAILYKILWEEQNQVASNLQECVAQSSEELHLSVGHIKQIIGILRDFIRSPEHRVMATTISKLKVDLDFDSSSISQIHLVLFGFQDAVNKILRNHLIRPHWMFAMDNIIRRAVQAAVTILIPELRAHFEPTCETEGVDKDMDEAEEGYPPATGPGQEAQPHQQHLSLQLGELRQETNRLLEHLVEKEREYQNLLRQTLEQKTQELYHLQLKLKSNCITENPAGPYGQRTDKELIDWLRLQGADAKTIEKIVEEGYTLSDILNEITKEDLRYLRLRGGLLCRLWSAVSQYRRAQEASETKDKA

[5] = target: T2, AURKA (Homo sapiens, UniProt O14965); assay: KINOMEscan competition binding; details: read-out: %Inh AURKA
T2 sequence (O14965 1-403): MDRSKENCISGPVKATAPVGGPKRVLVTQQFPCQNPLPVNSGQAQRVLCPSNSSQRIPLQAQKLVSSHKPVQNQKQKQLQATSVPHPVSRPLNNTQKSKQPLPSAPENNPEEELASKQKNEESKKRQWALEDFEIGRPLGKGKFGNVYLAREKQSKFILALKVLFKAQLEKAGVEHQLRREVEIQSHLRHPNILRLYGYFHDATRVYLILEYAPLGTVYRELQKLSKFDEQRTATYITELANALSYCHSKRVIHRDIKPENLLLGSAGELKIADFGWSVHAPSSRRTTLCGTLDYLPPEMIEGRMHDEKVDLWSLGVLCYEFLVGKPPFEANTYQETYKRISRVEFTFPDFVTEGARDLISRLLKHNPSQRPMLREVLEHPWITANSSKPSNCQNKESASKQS

[6] = target: ERBB2 (Homo sapiens, UniProt P04626); assay: KINOMEscan competition binding; details: read-out: %Inh ERBB2
[7] = target: CSF1R (Homo sapiens, UniProt P07333); assay: KINOMEscan competition binding; details: read-out: %Inh CSF1R
[8] = target: T3, CSNK1A1L (Homo sapiens, UniProt Q8N752); assay: KINOMEscan competition binding; details: read-out: %Inh CSNK1A1L
T3 sequence (Q8N752 1-337): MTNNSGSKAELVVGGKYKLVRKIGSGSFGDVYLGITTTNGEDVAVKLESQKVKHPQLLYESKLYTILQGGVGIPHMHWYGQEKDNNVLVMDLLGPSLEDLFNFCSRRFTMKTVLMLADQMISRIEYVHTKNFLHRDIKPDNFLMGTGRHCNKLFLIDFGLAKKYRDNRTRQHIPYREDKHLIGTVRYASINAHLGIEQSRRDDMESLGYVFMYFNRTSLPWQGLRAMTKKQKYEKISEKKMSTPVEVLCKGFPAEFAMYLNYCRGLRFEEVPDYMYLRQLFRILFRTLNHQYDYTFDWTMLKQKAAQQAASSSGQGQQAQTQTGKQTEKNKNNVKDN

[9] = target: CLK3 (Homo sapiens, UniProt P49761); assay: KINOMEscan competition binding; details: read-out: %Inh CLK3
[10] = target: HIPK2 (Homo sapiens, UniProt Q9H2X6); assay: KINOMEscan competition binding; details: read-out: %Inh HIPK2
[11] = target: CDK4-cyclinD3 (Homo sapiens, UniProt P11802); assay: KINOMEscan competition binding; details: read-out: %Inh CDK4-cyclinD3
[12] = system: 392 wild-type human kinases; assay: KINOMEscan assay panel, PKIS2 profiling; assay type: binding; details: 1 μM
Source text: Since the assay was only run in singlicate it was important to follow up actives with Kd determinations.

CSF1R, sequence (P07333 20-972): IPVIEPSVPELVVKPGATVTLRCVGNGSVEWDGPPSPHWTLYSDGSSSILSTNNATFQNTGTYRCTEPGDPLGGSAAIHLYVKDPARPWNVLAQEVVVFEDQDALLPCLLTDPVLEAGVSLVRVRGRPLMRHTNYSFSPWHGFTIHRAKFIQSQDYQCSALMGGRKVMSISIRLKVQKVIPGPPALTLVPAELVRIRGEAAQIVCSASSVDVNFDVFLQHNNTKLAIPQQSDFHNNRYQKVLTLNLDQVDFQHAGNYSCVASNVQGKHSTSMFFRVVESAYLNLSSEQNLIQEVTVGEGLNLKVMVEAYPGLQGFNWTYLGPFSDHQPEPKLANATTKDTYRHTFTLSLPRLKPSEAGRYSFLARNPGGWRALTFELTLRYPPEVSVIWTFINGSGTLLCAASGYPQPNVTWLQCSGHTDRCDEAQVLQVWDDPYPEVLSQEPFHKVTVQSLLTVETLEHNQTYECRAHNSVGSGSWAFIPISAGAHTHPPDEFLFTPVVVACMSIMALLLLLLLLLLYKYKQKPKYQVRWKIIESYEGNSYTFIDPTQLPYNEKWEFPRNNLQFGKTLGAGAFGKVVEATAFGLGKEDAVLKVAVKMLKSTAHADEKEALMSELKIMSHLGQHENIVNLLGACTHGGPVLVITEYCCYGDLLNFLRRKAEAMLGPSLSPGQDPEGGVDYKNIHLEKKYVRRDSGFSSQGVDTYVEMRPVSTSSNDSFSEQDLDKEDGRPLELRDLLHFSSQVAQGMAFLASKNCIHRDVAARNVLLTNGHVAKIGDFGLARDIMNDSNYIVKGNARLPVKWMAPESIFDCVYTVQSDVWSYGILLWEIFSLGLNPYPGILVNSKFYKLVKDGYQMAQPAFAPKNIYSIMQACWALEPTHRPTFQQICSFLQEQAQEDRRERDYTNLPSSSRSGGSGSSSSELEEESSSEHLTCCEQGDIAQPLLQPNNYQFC
AAK1, sequence (Q2M2I8 whole entry): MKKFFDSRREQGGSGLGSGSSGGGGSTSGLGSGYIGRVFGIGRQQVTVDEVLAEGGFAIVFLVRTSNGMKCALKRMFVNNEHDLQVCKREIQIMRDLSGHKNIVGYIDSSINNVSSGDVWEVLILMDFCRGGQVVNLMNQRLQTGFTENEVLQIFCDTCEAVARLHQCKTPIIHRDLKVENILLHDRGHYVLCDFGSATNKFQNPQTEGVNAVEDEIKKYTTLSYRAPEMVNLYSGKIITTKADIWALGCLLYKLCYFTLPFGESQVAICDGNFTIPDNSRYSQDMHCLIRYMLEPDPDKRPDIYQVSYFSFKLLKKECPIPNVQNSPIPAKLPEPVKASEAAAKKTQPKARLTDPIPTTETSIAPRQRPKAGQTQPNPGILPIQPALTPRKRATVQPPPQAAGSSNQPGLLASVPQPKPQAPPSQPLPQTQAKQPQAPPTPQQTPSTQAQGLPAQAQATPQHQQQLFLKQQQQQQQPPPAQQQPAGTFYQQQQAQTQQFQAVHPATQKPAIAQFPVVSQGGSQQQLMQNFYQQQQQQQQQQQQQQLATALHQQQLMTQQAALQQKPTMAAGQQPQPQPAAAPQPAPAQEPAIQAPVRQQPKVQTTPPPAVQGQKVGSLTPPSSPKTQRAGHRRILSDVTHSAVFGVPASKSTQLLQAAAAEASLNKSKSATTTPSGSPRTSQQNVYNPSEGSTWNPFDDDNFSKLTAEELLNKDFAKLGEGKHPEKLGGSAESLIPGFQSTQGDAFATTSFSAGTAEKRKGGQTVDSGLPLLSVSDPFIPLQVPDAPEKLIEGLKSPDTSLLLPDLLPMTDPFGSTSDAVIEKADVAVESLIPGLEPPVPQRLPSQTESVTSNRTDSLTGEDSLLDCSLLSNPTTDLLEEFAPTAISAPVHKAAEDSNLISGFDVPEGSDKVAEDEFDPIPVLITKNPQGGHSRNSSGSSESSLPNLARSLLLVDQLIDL
CDK4-cyclinD3, sequence (P11802 whole entry): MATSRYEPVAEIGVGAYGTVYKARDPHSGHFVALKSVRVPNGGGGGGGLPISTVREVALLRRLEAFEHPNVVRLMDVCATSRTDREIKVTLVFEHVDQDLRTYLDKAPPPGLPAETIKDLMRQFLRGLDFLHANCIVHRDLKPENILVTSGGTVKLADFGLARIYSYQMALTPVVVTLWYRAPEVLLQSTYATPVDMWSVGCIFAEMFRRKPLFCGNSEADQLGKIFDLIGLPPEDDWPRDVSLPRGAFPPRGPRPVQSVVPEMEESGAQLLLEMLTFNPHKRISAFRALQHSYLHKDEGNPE
CDK4-cyclinD3, sequence (P30281 whole entry partner): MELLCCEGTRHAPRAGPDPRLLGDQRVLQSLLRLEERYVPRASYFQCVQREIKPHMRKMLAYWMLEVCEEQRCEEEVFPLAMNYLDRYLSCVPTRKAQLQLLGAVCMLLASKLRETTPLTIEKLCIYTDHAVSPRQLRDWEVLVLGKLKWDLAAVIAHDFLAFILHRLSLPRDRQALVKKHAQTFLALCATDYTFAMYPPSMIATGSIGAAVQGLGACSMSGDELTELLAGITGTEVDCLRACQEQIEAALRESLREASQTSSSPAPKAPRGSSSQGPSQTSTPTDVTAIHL
HIPK2, sequence (Q9H2X6 whole entry): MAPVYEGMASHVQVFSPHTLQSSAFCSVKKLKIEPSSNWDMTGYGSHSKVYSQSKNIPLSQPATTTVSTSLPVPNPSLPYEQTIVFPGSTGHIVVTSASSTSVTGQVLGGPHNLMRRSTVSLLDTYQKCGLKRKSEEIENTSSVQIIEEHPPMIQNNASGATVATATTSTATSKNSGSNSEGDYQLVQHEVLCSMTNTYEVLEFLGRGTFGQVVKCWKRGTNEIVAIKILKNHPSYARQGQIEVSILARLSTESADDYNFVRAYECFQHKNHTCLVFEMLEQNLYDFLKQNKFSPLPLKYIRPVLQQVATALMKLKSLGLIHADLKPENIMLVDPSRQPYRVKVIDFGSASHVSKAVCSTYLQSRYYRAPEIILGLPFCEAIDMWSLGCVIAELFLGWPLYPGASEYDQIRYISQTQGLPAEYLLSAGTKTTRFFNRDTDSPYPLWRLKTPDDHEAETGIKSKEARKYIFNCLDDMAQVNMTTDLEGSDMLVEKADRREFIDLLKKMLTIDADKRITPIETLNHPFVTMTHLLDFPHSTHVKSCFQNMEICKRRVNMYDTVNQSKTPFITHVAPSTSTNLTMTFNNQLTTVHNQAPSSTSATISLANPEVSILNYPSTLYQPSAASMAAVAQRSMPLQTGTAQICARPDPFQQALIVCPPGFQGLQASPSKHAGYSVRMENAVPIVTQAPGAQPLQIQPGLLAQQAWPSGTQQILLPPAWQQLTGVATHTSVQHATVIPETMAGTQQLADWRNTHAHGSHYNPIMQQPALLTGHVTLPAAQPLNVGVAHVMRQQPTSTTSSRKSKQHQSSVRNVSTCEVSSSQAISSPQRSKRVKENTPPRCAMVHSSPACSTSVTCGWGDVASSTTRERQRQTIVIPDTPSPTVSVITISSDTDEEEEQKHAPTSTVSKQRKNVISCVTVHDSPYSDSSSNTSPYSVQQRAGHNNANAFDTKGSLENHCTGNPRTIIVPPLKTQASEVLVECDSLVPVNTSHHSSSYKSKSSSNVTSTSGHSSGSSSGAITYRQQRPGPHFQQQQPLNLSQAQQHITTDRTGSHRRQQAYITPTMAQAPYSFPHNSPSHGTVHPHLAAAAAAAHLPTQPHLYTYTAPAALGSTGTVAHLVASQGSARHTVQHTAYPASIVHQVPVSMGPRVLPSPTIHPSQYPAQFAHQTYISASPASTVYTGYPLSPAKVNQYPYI
CAMK1D, sequence (Q8IU85 whole entry): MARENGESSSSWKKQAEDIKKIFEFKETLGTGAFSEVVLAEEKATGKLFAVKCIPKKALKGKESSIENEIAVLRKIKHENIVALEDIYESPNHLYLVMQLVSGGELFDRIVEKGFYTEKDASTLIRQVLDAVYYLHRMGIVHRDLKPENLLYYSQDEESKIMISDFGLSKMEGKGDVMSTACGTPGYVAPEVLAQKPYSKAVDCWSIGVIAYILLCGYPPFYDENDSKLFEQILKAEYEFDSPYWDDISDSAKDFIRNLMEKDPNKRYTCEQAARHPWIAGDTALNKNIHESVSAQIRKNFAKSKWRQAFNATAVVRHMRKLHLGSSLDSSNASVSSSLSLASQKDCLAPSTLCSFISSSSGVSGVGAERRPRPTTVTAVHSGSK
JNK1, sequence (P45983 whole entry): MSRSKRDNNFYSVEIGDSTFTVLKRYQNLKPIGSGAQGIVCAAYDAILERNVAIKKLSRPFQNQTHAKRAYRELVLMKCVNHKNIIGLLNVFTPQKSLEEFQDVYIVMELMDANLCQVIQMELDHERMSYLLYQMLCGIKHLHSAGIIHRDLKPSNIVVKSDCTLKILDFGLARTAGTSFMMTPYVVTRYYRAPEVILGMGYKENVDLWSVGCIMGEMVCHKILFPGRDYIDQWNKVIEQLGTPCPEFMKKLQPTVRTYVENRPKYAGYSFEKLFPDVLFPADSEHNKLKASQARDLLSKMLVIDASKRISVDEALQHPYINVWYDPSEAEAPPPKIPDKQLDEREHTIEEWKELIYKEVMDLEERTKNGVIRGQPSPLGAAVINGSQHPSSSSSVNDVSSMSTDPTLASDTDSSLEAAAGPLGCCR
CLK3, sequence (P49761 whole entry): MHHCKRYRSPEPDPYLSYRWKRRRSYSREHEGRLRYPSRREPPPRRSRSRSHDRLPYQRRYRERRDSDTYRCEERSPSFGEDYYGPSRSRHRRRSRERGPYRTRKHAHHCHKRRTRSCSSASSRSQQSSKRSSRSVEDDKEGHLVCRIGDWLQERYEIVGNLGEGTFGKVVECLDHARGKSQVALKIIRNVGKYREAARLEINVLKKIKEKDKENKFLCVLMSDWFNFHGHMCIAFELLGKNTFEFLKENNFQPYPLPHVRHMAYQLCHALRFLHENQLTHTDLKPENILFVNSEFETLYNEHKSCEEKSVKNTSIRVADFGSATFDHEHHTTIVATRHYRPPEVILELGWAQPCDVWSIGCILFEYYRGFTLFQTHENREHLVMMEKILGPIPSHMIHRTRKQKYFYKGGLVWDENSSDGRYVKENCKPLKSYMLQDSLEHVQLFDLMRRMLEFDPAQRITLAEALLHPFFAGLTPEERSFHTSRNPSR

SMILES | inhibition at 1 µM [1] | inhibition at 1 µM [2] | inhibition at 1 µM [3] | inhibition at 1 µM [4] | inhibition at 1 µM [5] | inhibition at 1 µM [6] | inhibition at 1 µM [7] | inhibition at 1 µM [8] | inhibition at 1 µM [9] | inhibition at 1 µM [10] | inhibition at 1 µM [11] | >70 (number of kinases with %Inh >70) [12] | >80 (number of kinases with %Inh >80) [12] | >90 (number of kinases with %Inh >90) [12]
COc1cccc(OC)c1C(=O)Nc1cccc(-c2nn3ccccc3c2-c2ccnc(Nc3cccc(F)c3)n2)c1 [UNC10225310A] | 44% | 13% | 0% | 0% | 32% | 61% | 60% | 0% | 0% | 0% | 7% | 19 | 19 | 12
Cc1ccc(NC(=O)Nc2cccc(C(F)(F)F)c2)cc1 [UNC10225187A] | 58% | 25% | 26% | 0% | 0% | 0% | 0% | 0% | 0% | 0% | 0% | 4 | 4 | 3
O=c1cc(N2CCOCC2)nc2n(Cc3cccc(Cl)c3Cl)c(C3CC3)nn12 [UNC10225469A] | 19% | 0% | 14% | 0% | 0% | 0% | 0% | 0% | 14% | 0% | 0% | 3 | 3 | 2
CS(=O)(=O)Cc1ccc(Nc2nccc(-c3c(-c4cccc(NC(=O)C5CCCCC5)c4)nn4ncccc34)n2)cc1 [UNC10225159A] | 43% | 0% | 0% | 38% | 9% | 25% | 79% | 0% | 24% | 14% | 18% | 12 | 10 | 5
Cn1cc(-c2cnc(N)c3c(-c4ccc5c(c4)CCN5C(=O)Cc4ccccc4)csc23)cn1 [UNC10225012A] | 13% | 11% | 0% | 35% | 24% | 0% | 99.9% | 0% | 0% | 0% | 0% | 42 | 36 | 27
